One experiment has as its target T1, Full length human CDC7 protein co-expressed with DBF4 (Homo sapiens, UniProt O00311).
T1 construct: Full length human CDC7 protein co-expressed with DBF4; purchased SignalChem (China)
The experiment in a line: CDC7 kinase biochemical assay (ADP-Glo, PDKtide substrate). Conditions: 0.1 nM CDC7/DBF4, 1 uM ATP, 10 uM PDKtide, 4 h; read-out: CDC7 ADP-Glo PDKtide IC50. The method, then: CDC7 Kinase Biochemical Assay Protocol:
Full length human CDC7 protein co-expressed with DBF4 was purchased from SignalChem (China). CDC7 kinase activity was determined with PDKtide (SignalChem) as a substrate and by measuring ADP production using the ADP-Glo™ Kinase Assay kit (Promega) following the manufacturers instructions. The kinase reaction was performed using the following conditions: Buffer: 40 mM Tris pH 7.5, 20 mM MgCl2, 0.1 mg/ml BSA and 50 uM DTT. Final reaction mix contained 0.1 nM CDC7/DBF4, 1 uM ATP and 10 uM PDKtide. The kinase reaction time was 4 h. The ADP-Glo signal was measured using an EnVision plate reader (PerkinELmer).
Percent inhibition of CDC7 kinase activity was calculated based on the following formula: […]
SSample: the signal of compounds SHigh ctrl: the signal of high control (DMSO) SLow Ctrl: the signal of low control (positive control CDC7 inhibitor)
(ADP-Glo first removes unused ATP, then detects ADP through luciferase.)
T1 sequence (O00311 whole entry): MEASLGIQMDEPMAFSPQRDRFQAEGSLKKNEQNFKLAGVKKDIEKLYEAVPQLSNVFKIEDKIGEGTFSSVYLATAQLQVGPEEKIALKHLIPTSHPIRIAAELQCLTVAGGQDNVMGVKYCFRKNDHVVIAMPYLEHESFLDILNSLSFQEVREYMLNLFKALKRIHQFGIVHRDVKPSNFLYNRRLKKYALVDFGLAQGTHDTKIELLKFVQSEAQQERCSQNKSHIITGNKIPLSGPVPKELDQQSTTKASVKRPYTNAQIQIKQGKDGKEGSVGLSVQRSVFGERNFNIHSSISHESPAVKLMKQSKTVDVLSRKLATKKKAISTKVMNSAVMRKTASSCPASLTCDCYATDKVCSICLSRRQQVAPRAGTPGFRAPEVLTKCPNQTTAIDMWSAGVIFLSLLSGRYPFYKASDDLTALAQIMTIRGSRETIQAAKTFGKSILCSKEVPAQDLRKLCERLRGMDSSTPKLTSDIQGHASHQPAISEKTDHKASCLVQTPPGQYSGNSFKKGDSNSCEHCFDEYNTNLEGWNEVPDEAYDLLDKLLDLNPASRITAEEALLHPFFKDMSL
T1 sequence (Q9UBU7 whole entry partner): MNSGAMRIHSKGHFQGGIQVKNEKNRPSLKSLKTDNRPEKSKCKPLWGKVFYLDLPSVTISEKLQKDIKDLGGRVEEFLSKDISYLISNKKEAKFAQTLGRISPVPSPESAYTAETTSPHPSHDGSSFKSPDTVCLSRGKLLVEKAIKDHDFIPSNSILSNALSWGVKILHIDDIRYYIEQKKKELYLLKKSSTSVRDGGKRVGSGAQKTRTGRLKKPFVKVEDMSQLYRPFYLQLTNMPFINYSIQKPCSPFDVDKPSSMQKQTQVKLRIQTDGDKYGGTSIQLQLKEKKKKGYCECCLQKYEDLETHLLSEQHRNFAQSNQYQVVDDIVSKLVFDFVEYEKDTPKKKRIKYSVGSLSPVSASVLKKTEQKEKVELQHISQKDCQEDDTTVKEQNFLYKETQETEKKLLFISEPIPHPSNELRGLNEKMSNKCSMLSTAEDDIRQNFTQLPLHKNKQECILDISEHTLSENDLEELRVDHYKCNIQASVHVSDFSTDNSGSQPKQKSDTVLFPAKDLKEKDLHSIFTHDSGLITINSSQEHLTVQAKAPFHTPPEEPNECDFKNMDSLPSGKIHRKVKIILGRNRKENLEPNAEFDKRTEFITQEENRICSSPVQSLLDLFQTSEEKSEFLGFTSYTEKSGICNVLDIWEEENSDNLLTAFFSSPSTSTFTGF
The IC50 is the midpoint of a concentration-inhibition curve. Consider `CC1(C)NC(=O)c2sc(-c3ccnc4[nH]ccc34)c3c2N1CCO3` [Compound 14, 6,6-dimethyl-2-(1H-pyrrolo[2,3-b]pyridin-4-yl)-4,5,6,7-tetrahydro-8H-3-oxa-1-thia-5a,7-diazaacenaphthylen-8-one], for which the IC50 fell in the range of 1 to 10 nM.
For `Cc1cnn(C[C@H]2COc3c(-c4cn[nH]c4)sc4c3N2CCNC4=O)c1` [Compound 45, (S)-5-((4-methyl-1H-pyrazol-1-yl)methyl)-2-(1H-pyrazol-4-yl)-4,5,7,8-tetrahydro-3-oxa-1-thia-5a,8-diazabenzo[cd]azulen-9(6H)-one], the IC50 fell in the range of 1 to 10 nM.
Still for that read-out and setting: under `O=C1N[C@@H](C2CCCCO2)CN2CC(F)(F)Cc3c(-c4cn[nH]c4)sc1c32` (single isomer, unassigned) [Compound 139] stands less than 1 nM; under `COC[C@@H]1CN(C)C(=O)c2sc(-c3cn[nH]c3)c3c2N1CCO3` [Compound 56, (S)-6-(methoxymethyl)-8-methyl-2-(1H-pyrazol-4-yl)-4,5,7,8-tetrahydro-3-oxa-1-thia-5a,8-diazabenzo[cd]azulen-9(6H)-one], 1 to 10 nM.
For the molecule `O=C1NC[C@H](CN2CCC2)N2CCOc3c(-c4cn[nH]c4)sc1c32` [Compound 36, (R)-6-(azetidin-1-ylmethyl)-2-(1H-pyrazol-4-yl)-4,5,7,8-tetrahydro-3-oxa-1-thia-5a,8-diazabenzo[cd]azulen-9(6H)-one], the IC50 was in the range of 1 to 10 nM.
For the molecule `O=C1NC(C2CC(F)(F)C2)CN2CC(F)Cc3c(-c4cn[nH]c4)sc1c32` (single isomer, unassigned) [Compound 129, 7-(3,3-difluorocyclobutyl)-4-fluoro-2-(1H-pyrazol-4-yl)-4,5,7,8-tetrahydro-3H-1-thia-5a,8-diazabenzo[cd]azulen-9(6H)-one], the IC50 is less than 1 nM.
`Cc1ccn(C[C@@H]2CNC(=O)c3sc(-c4cn[nH]c4)c4c3N2CCO4)n1` [Compound 61, (S)-6-((3-methyl-1H-pyrazol-1-yl)methyl)-2-(1H-pyrazol-4-yl)-4,5,7,8-tetrahydro-3-oxa-1-thia-5a,8-diazabenzo[cd]azulen-9(6H)-one]: the 50% inhibitory concentration (IC50) is less than 1 nM.
With `COC(=O)C[C@@H]1CNC(=O)c2sc(-c3cn[nH]c3)c3c2N1CCO3` [Compound 60, methyl (R)-2-(9-oxo-2-(1H-pyrazol-4-yl)-4,5,6,7,8,9-hexahydro-3-oxa-1-thia-5a,8-diazabenzo[cd]azulen-6-yl)acetate], the IC50 lay in the range of 1 to 10 nM.
Turning to `C[C@H]1CNC(=O)c2sc(-c3cn[nH]c3)c3c2N1CCO3` [Compound 25, (S)-6-methyl-2-(1H-pyrazol-4-yl)-4,5,7,8-tetrahydro-3-oxa-1-thia-5a,8-diazabenzo[cd]azulen-9(6H)-one], the half-maximal inhibitory concentration (IC50) is less than 1 nM.
The same measure, in the same setting: under `C[C@H]1CNC(=O)c2sc(-c3ccncc3)c3c2N1CCO3` [Compound 24, (S)-6-methyl-2-(pyridin-4-yl)-4,5,7,8-tetrahydro-3-oxa-1-thia-5a,8-diazabenzo[cd]azulen-9(6H)-one] stands 1 to 10 nM.
As to `O=C1NCCN2c3c1sc(-c1cn[nH]c1)c3OC[C@H]2CNC(=O)C1CCC1` [Compound 58, (R)—N-((9-oxo-2-(1H-pyrazol-4-yl)-4,5,6,7,8,9-hexahydro-3-oxa-1-thia-5a,8-diazabenzo[cd]azulen-5-yl)methyl)cyclobutanecarboxamide], the IC50 was less than 1 nM.
For `C[C@H]1CN2CC(F)(F)Cc3c(-c4cn[nH]c4)sc(c32)C(=O)N1` [Compound 101, (10S)-6,6-difluoro-10-methyl-3-(1H-pyrazol-4-yl)-2-thia-8,11-diazatricyclo[6.4.1.0^4,13]trideca-1(13),3-dien-12-one], the IC50 is less than 1 nM.
For the molecule `CC1(C)NC(=O)c2sc(-c3ccnc4[nH]ncc34)c3c2N1CCO3` [Compound 8, 6,6-dimethyl-2-(1H-pyrazolo[3,4-b]pyridin-4-yl)-4,5,6,7-tetrahydro-8H-3-oxa-1-thia-5a,7-diazaacenaphthylen-8-one], the IC50 is 1 to 10 nM.
`CC1(C)NC(=O)c2sc(-c3ccnc(N)n3)c3c2N1CCO3` [Compound 11, 2-(2-aminopyrimidin-4-yl)-6,6-dimethyl-4,5,6,7-tetrahydro-8H-3-oxa-1-thia-5a,7-diazaacenaphthylen-8-one]: the IC50 was in the range of 1 to 10 nM.
Regarding `C[C@H]1CN2CCCc3c(-c4ccncc4)sc(c32)C(=O)N1` [Compound 31, (S)-7-methyl-2-(pyridin-4-yl)-4,5,7,8-tetrahydro-3H-1-thia-5a,8-diazabenzo[cd]azulen-9(6H)-one], the IC50 is 1 to 10 nM.
For the molecule `CC1(C)NC(=O)c2sc(-c3ccnc(N)c3)c3c2N1CCO3` [Compound 13, 2-(2-aminopyridin-4-yl)-6,6-dimethyl-4,5,6,7-tetrahydro-8H-3-oxa-1-thia-5a,7-diazaacenaphthylen-8-one], the IC50 fell in the range of 1 to 10 nM.
The same measure, in the same setting: under `O=C1NC[C@H](COCc2ccccc2)N2CCOc3c(-c4cn[nH]c4)sc1c32` [Compound 35, (R)-6-((benzyloxy)methyl)-2-(1H-pyrazol-4-yl)-4,5,7,8-tetrahydro-3-oxa-1-thia-5a,8-diazabenzo[cd]azulen-9(6H)-one] stands 1 to 10 nM; under `O=C1NC(C2CCCCO2)CN2CCCc3c(-c4cn[nH]c4)sc1c32` (single isomer, unassigned) [Compound 109], greater than 10 nM.
As to `C[C@H]1CN2C(=O)COc3c(-c4cn[nH]c4)sc(c32)C(=O)N1` [Compound 20, (S)-7-methyl-2-(1H-pyrazol-4-yl)-7,8-dihydro-3-oxa-1-thia-5a,8-diazabenzo[cd]azulene-5,9(4H,6H)-dione], the IC50 is less than 1 nM.
As to `Cn1ccc(C2CN3CCOc4c(-c5cn[nH]c5)sc(c43)C(=O)N2)n1` (centres unmarked) [Compound 52], the IC50 is 1 to 10 nM.
`O=C1NC[C@@H](CN2CCC2)N2CCOc3c(-c4cn[nH]c4)sc1c32` [Compound 46, (S)-6-(azetidin-1-ylmethyl)-2-(1H-pyrazol-4-yl)-4,5,7,8-tetrahydro-3-oxa-1-thia-5a,8-diazabenzo[cd]azulen-9(6H)-one]: the IC50 is 1 to 10 nM.
For the molecule `CC1(C)NC(=O)c2sc(-c3c[nH]c4ncc(Cl)cc34)c3c2N1CCO3` [Compound 10, 2-(5-chloro-1H-pyrrolo[2,3-b]pyridin-3-yl)-6,6-dimethyl-4,5,6,7-tetrahydro-8H-3-oxa-1-thia-5a,7-diazaacenaphthylen-8-one], the IC50 lay within 1 to 10 nM.
As for `O=C1N[C@@H](CN2CCC2)CN2CCOc3c(-c4cn[nH]c4)sc1c32` [Compound 40, (S)-7-(azetidin-1-ylmethyl)-2-(1H-pyrazol-4-yl)-4,5,7,8-tetrahydro-3-oxa-1-thia-5a,8-diazabenzo[cd]azulen-9(6H)-one], the IC50 was 1 to 10 nM.
As to `COC[C@H]1CNC(=O)c2sc(-c3cn[nH]c3)c3c2N1CCC3` [Compound 88, (R)-6-(methoxymethyl)-2-(1H-pyrazol-4-yl)-4,5,7,8-tetrahydro-3H-1-thia-5a,8-diazabenzo[cd]azulen-9(6H)-one], the IC50 was in the range of 1 to 10 nM.
With `N#CC[C@@H]1CNC(=O)c2sc(-c3cn[nH]c3)c3c2N1CCC3` [Compound 97, (R)-2-(9-oxo-2-(1H-pyrazol-4-yl)-4,5,6,7,8,9-hexahydro-3H-1-thia-5a,8-diazabenzo[cd]azulen-6-yl)acetonitrile], the IC50 was less than 1 nM.

The same experiment, now with this note: CDC7 ADP-Glo PDKtide IC50, 0.1 nM CDC7/DBF4, 1 uM ATP, 10 uM PDKtide, 4 h.
`O=C1N[C@H](C2CCC2)CN2C(=O)COc3c(-c4cn[nH]c4)sc1c32` [Compound 21, (R)-7-cyclobutyl-2-(1H-pyrazol-4-yl)-7,8-dihydro-3-oxa-1-thia-5a,8-diazabenzo[cd]azulene-5,9(4H,6H)-dione] returned a half-maximal inhibitory concentration (IC50) of 1 to 10 nM.

The values above are taken from US20230101747A1 (Schrödinger, Inc., priority 2019, published 2023).
